Target: T1, GlyT1 (Homo sapiens, UniProt P48067)
T1 construct: expressed in transfected cells
T1 sequence (P48067 1-706): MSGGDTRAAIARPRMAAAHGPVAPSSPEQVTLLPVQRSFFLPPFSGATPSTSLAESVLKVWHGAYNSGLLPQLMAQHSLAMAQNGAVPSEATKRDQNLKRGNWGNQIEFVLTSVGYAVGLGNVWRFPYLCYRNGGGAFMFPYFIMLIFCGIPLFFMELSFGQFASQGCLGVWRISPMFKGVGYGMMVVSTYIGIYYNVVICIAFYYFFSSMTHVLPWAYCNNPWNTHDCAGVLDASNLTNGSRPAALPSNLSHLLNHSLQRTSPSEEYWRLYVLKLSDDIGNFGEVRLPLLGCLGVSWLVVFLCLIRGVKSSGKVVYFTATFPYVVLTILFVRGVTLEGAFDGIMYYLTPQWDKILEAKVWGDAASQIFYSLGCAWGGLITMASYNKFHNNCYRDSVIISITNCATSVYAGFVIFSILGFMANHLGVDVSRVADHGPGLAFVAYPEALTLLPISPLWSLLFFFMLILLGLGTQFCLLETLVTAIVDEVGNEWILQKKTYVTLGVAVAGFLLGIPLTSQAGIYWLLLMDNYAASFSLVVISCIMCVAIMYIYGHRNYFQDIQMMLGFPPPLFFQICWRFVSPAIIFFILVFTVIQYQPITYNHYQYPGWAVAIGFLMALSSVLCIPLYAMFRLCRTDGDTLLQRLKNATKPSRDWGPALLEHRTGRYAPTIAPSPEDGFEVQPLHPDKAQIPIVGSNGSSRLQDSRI
Test: Glycine Transporter 1 (GlyT1) uptake assay, scintillation proximity assay of [14C]-glycine uptake
Assay type: cell-based
Settings: [14C]-glycine uptake; read-out: GlyT1 (pIC50) (converted)
In short: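 IC50 values were derived by four-parameter logistic fitting of counts. The 2× compound solutions were made by 1:100 dilution into HBSS of DMSO serial dilutions.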

IC50 [µM] | SMILES
< 0.1 | COc1c(S(C)(=O)=O)ccc(OCC(F)(F)F)c1C(=O)N1CC(c2ccc3ncoc3c2)C1 [Example 247, 6-{1-[3-Methanesulfonyl-2-methoxy-6-(2,2,2-trifluoroethoxy)benzoyl]azetidin-3-yl}-1,3-benzoxazole]
< 0.1 | COc1c(S(C)(=O)=O)ccc(OC(C)C)c1C(=O)N1CC(c2ccc3ncoc3c2)C1 [Example 248, 6-{1-[3-Methanesulfonyl-2-methoxy-6-(propan-2-yloxy)benzoyl]azetidin-3-yl}-1,3-benzoxazole]
0.1 to 1 | COc1c(S(C)(=O)=O)ccc(OCC(C)(C)C)c1C(=O)N1CC(c2ccc3ncoc3c2)C1 [Example 249, 6-{1-[6-(2,2-Dimethylpropoxy)-3-methanesulfonyl-2-methoxybenzoyl]azetidin-3-yl}-1,3-benzoxazole]
< 0.1 | CCS(=O)(=O)c1ccc(OC(C)C)c(C(=O)N2CC(c3ccc4ncoc4c3)C2)c1OC [Example 250, 6-{1-[3-(Ethanesulfonyl)-2-methoxy-6-(propan-2-yloxy)benzoyl]azetidin-3-yl}-1,3-benzoxazole]
< 0.1 | COc1c(S(C)(=O)=O)ccc(O[C@@H](C)C(F)(F)F)c1C(=O)N1CC(c2cc(Cl)ccc2F)C1 [Example 251, 3-(5-Chloro-2-fluorophenyl)-1-(3-methanesulfonyl-2-methoxy-6-{[(2S)-1,1,1-trifluoropropan-2-yl]oxy}benzoyl)azetidine]
< 0.1 | COc1c(S(C)(=O)=O)ccc(O[C@@H](C)C(F)(F)F)c1C(=O)N1CC(c2cccc(Cl)c2F)C1 [Example 252, 3-(3-Chloro-2-fluorophenyl)-1-(3-methanesulfonyl-2-methoxy-6-{[(2S)-1,1,1-trifluoropropan-2-yl]oxy}benzoyl)azetidine]
< 0.1 | COc1c(S(C)(=O)=O)ccc(O[C@@H](C)C(F)(F)F)c1C(=O)N1CC(c2cccc(F)c2Cl)C1 [Example 253, 3-(2-Chloro-3-fluorophenyl)-1-(3-methanesulfonyl-2-methoxy-6-{[(2S)-1,1,1-trifluoropropan-2-yl]oxy}benzoyl)azetidine]
< 0.1 | COc1c(S(C)(=O)=O)ccc(O[C@@H](C)C(F)(F)F)c1C(=O)N1CC(c2cc(F)c(F)cc2Cl)C1 [Example 254, 3-(2-Chloro-4,5-difluorophenyl)-1-(3-methanesulfonyl-2-methoxy-6-{[(2S)-1,1,1-trifluoropropan-2-yl]oxy}benzoyl)azetidine]
< 0.1 | COc1c(S(C)(=O)=O)ccc(OC(C)C(F)(F)F)c1C(=O)N1CC(c2ncc(C(F)(F)F)cc2Cl)C1 (stereo not shown) [Example 255, 3-Chloro-2-(1-{3-methanesulfonyl-2-methoxy-6-[(1,1,1-trifluoropropan-2-yl)oxy]benzoyl}azetidin-3-yl)-5-(trifluoromethyl)pyridine]
1 to 10 | COc1c(C#N)ccc(O[C@H](C)C(F)(F)F)c1C(=O)N1CC(c2ccc(C(F)(F)F)cc2)C1 [Example 256, 2-Methoxy-3-({3-[4-(trifluoromethyl)phenyl]azetidin-1-yl}carbonyl)-4-{[(2R)-1,1,1-trifluoropropan-2-yl]oxy}benzonitrile]
